Molecular target: T1, Cdk2/cyclin A (Homo sapiens, UniProt P24941)
T1 construct: Full length human Cdk2, active Cdk2 (phosphorylated at threonine 160); truncated human cyclin A (residues 173–432); made in house
Test: Cdk2/cyclin A kinase activity assay (Histone H1 substrate)
Type: biochemical
Conditions: SJ403 alone, 10 μM to 3 mM, 200 pM Cdk2/cyclin A
Description: Cdk2/Cyclin A (200 pM) was mixed with Histone H1 (15 μM; EMD Millipore), p27-D2 (200 nM) and varied amounts of lyophilized SJ403 and incubated overnight at 4 °C. The effect of the SJ403 compound on Cdk2 activity was determined by performing similar experiments in the absence of p27-D2. Subsequently, ATP (50 μM total concentration, of which 6 μCi γ ^32P-ATP (PerkinElmer, Inc)) was added to each reaction and further incubated for 35 minutes at 30 °C. […] The sample buffer contained 20 mM HEPES pH 7.3, 25 mM sodium β-glycerolphosphate, 15 mM MgCl2, 16 mM EGTA, 0.5 mM Na3VO4 and 10 mM DTT. The reactions were quenched by addition of SDS-gel loading buffer (5 μL) and then analyzed by SDS-PAGE (10 μL). The gels were dried at 70 °C under vacuum and a phosphoimager (GE Healthcare, Piscataway, NJ) was used to quantify the ^32P-Histone H1 bands. IC50 values were determined by curve fitting using KaleidaGraph software. Experiments were performed in triplicate and mean IC50 and standard deviations of the mean values are reported.

## CCn1c(C)c(C)n2c3c(=O)n(C)c(=O)n(C)c3nc12 [SJ403]
  effect on Cdk2/cyclin A activity in the absence of p27-D2: substantially inhibited

From PMC4623604, “Discovery of Small Molecules that Inhibit the Disordered Protein, p27^Kip1” (Scientific Reports, 2015)
